≈ marks a conversion by molar mass, not a printed value. Bridges are numbered along the chain shown (N, C = ends). [ ]: non-standard residue; d: D form. Aib = CC(C)(N)C(=O)O

Data set [1] can be described thus: Pharmacokinetics in C57Bl6 mice. As to conditions: 10 mg/kg i.v., FIG. 31. Format: in vivo, mouse.
Data set [2] concerns the target T1, TFPI (Homo sapiens, UniProt P10646).
T1 sequence (P10646 29-304): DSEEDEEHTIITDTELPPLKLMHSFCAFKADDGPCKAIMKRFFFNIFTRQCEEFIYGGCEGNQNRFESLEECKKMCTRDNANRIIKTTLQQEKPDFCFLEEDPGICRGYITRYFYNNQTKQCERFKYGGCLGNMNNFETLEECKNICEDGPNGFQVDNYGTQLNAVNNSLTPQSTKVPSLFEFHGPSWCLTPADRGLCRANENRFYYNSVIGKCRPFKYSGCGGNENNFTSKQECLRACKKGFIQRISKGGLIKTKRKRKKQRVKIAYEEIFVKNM
As to the kind of experiment: Plasma-based thrombin generation assay (calibrated automated thrombography), human plasma. Conditions: 50-100 nM peptide; 10 nM flTFPI, FVIII-inhibited plasma.

For the next data set, the target named is T2, HUVEC TFPI (Homo sapiens, UniProt P10646).
T2 construct: endogenous in cells; host or cells: HUVEC stimulated with TNFα
T2 sequence (P10646 29-304): T1 sequence (P10646 29-304)
As to the kind of experiment: Cell-based extrinsic tenase assay (HUVEC). As to conditions: relative to 100 nM polyclonal anti-human TFPI antibody = 100%.

Data set [3] concerns the target T1, TFPI. As to the kind of experiment: FXa inhibition by TFPI in presence of Ca2+, phospholipid and protein S. It counts as biochemical. As to conditions: 50 nM peptide; PL+Ca2++protein S. How it is done:
The effects of TFPI binding peptides on the anticoagulant activity of TFPI was tested in model systems (inhibition of FXa and TF-FVIIa-catalysed FX activation by TFPI) and in plasma (NP, PPP, PRP or TFPI-depleted plasma reconstituted with recombinant- or platelet-TFPI or platelets). […] […])/kobs in which At is absorbance at 405 nm at time t; A0 is initial absorbance at 405 nm; vs is final steady-state velocity; v0 is initial velocity; kobs is apparent rate constant for the transition from v0 to vs (FXa-TFPI to FXa-TFPI*). The values v0 and vs relative to rates of chromogenic substrate conversion by FXa in the absence of TFPI, represent the extent of loose and tight FXa-TFPI complex formation.

Another data set concerns the target T3, fl-TFPI / ASGPR (Homo sapiens, UniProt P10646).
T3 sequence (P10646 29-304): T1 sequence (P10646 29-304)
As to the kind of experiment: BIAcore: fl-TFPI binding to ASGPR in presence of peptide. Conditions: 1 μM peptide.

The target of a further data set is T4, fl-TFPI / LRP (Homo sapiens, UniProt P10646).
T4 sequence (P10646 29-304): T1 sequence (P10646 29-304)
T4 sequence (Q07954 852-1182 partner limits assumed): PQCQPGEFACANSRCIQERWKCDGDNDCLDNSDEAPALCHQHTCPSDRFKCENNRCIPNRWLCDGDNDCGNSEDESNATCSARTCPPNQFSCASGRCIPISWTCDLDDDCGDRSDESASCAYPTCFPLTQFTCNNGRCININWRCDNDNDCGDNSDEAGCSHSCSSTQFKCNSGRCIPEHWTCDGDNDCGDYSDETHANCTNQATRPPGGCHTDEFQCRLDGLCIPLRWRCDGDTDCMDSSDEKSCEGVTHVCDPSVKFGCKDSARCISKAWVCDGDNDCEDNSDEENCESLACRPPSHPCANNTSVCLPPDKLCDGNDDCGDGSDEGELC
The experiment in a line: BIAcore: fl-TFPI binding to LRP in presence of peptide. Conditions: 1 μM peptide, 10 nM fl-TFPI.

The subject of data set [4] is TFPI. As to the kind of experiment: Extrinsic tenase inhibition assay. As to conditions: Table 19; 0.0625 nM TFPI.
Another data set concerns cynomolgus TFPI 1-160. The experiment in a line: FXa inhibition assay with cynomolgus monkey TFPI 1-160. It counts as biochemical.
In data set [5] the target is T1, TFPI. As to the kind of experiment: koff assay. Format: binding. As to conditions: 24 hour incubation.
In a further data set the target is T5, platelet TFPI (Homo sapiens, UniProt P10646).
T5 construct: from tissue; donor PPP and PRP
T5 sequence (P10646 29-304): T1 sequence (P10646 29-304)
As to the kind of experiment: TF-FVIIa-catalysed FX activation inhibited by platelet TFPI. Format: biochemical. As to conditions: 50 nM peptide.

The next data set concerns neutrophil elastase. As to the kind of experiment: Proteolytic degradation of fl-TFPI by neutrophil elastase. Format: biochemical, human. Conditions: 1 μM peptide, 5 nM fl-TFPI, 5 nM elastase, up to 60 minutes.
Data set [6] concerns FVIII-inhibited whole blood. As to the kind of experiment: Rotation thromboelastography (ROTEM) in whole blood. Also noted: species or system human. As to conditions: concentrations above 100 nM; 2 nM and 10 nM full length TFPI added.
Data set [7] concerns the target T6, plasma- and platelet TFPI (Homo sapiens, UniProt P10646).
T6 construct: from tissue; donor PPP and PRP
T6 sequence (P10646 29-304): T1 sequence (P10646 29-304)
The experiment in a line: Thrombin generation in platelet-poor and platelet-rich plasma. It counts as biochemical.

The subject of data set [8] is TFPI. The experiment in a line: FXa inhibition assay (human TFPI). As to conditions: all human TFPI concentrations tested (up to 10 nM).
A short description of the next data set: in vitro. As to conditions: human, plasma.

Take `CC(=O)N[C@@H](Cc1ccccc1)C(=O)N[C@@H](CCC(N)=O)C(=O)N[C@@H](CO)C(=O)N[C@@H](CCCCN)C(=O)NCC(=O)N[C@@H](CC(N)=O)C(=O)N[C@H](C(=O)N[C@@H](Cc1ccccc1)C(=O)N[C@H](C(=O)N[C@@H](CC(=O)O)C(=O)NCC(=O)N[C@@H](Cc1ccc(O)cc1)C(=O)N[C@@H](Cc1ccccc1)C(=O)N[C@@H](CCC(=O)O)C(=O)N[C@@H](CCCNC(=N)N)C(=O)N[C@@H](CC(C)C)C(=O)NC(C)(C)C(=O)N[C@@H](C)C(=O)N[C@@H](CCCCN)C(=O)N[C@@H](CC(C)C)C(N)=O)C(C)C)C(C)C` [JBT0740]: the concentration in solution in the data set “physchem” (solubility) came to 920 µg/mL (≈ 392 µM). Moreover, the “plasma concentration after intravenous administration” value in data set [1] is reported as “rapidly cleared from the plasma”.
On to “Ac-FQSK[dP]NVHVDGYFERL[Aib]AKLSSSSSSSSSSSYYKWHCAMRDMKGTMTCVWVKF-NH2 (disulfide 37-48 (inferred)) [JBT2547]”, for which the “compensation of added flTFPI” value at TFPI [2] is “fully compensated the anticoagulant effect of 10 nM flTFPI”. For the same compound, at HUVEC TFPI, the “concentration achieving full inhibition of TFPI” value is reported as “about 10 nM”. The “blocking of TFPI” value at TFPI [3] is recorded as “almost completely blocked TFPI”. The “fl-TFPI interaction with ASGPR in presence of peptide” value on fl-TFPI / ASGPR is recorded as “interacted with ASGPR”. Further, the “fl-TFPI interaction with LRP in presence of peptide” value on fl-TFPI / LRP was “higher response than that observed for TFPI complexed with single peptides”. Also, the “Extrinsic Tenase Assay Maximal inhibition (%)” value in the data set with TFPI [4] amounted to 99%. Further, the “reduction of EC50 compared to JBT1857” value in the data set on cynomolgus TFPI 1-160 was “approximately 200 fold”. Besides, the “reduction of EC50 compared to the combination of JBT1837 and JBT1857” value with cynomolgus TFPI 1-160 is on record as roughly 10 fold. In the data set on cynomolgus TFPI 1-160 (Table 20), the “Cynomolgus Monkey TFPI 1-160 Maximal inhibition (%)” value is 100%. Further, the “blocking of tracer JBT2271 binding after incubation” value at TFPI [5] was “continued to block binding of the tracer to TFPI”. Further, on platelet TFPI, the “blocking of platelet TFPI inhibition of TF-FVIIa-catalysed FX activation” value is recorded as “completely blocked the anticoagulant activity of TFPI”. Besides, the “effect on proteolysis of fl-TFPI by neutrophil elastase” value in the data set on neutrophil elastase is “proteolysis of fl-TFPI was blocked during the monitored time”. For the same compound, the “restoration of coagulation with added full length TFPI” value in data set [6] was “fully restored normal coagulation of FVIII-inhibited whole blood”. Moreover, the “enhancement of thrombin generation” value was 3-4 fold in data set [7] (PPP) and 3 fold in [7] (PRP with inhibitory FVIII antibody). For the same compound, the “concentration sufficient to fully inhibit TFPI” value in data set [7] (PPP and PRP) lay within 5 to 10 nM. In addition, the “inhibition of TFPI activity” value in the data set with TFPI [8] was determined as 100%. The fraction remaining at 24 h in the data set “in vitro” is 54%.
